1 molecule from patent US11274158B2, “Methods and compositions for treating inflammatory or autoimmune diseases or conditions using calcitonin receptor activators” (Flagship Pioneering Innovations V, Inc., priority 2018, dated 2022) can be followed below.

The experiment relates to human macrophages. Briefly: Effect of calcitonin receptor agonism on cytokine (IL6) secretion in human macrophages, bead-based immunoassay. In kind it is cell-based. Particulars: human monocyte-derived macrophages, supernatant. As to the method: CD14+ monocytes were isolated from human PBMCs using negative magnetic bead selection (Stemcell Technologies) on day 0. Cells were cultured with M-CSF to differentiate monocytes to macrophages. On day 6, cells were treated with SUN-B-8155, a non-peptide calcitonin receptor agonist (Sigma-Aldrich), at concentrations 2 μM and 20 μM overnight. Supernatant was collected and bead-based immunoassays (Biolegend) were performed to detect changes in cytokine secretion.
Across multiple donors, secretion of the inflammatory cytokine, IL6, by macrophages was decreased after addition of small molecule agonist to calcitonin receptor, as shown in Table 13 below.

For the molecule `CC(=Nc1ccccc1N)c1c(C)cc(=O)n(O)c1O` [SUN-B-8155], the “Fold change of IL6 (Normalized to Macs + LPS with no compound treatment)” value runs as follows: (2 μM overnight) 0.92; (20 μM overnight) 0.09.
